Patent US8541197B2 (priority 2006, dated 2013)

Assays:
C. elegans = conditions: worms on mutant or wild-type yeast with E. coli, treated with DPI; expected result of a planned test
Excerpt: The worms are carefully monitored twice a day from the time the eggs are exposed to the microbial cultures up to day 4, when the Dar phenotype is clearly visible. […] At day 4, the anal swelling (or Dar) phenotype is scored for worms plated on mixed lawns of E. coli and yeast and compared to worms plated on E. coli lawns without yeast or with heat inactivated yeast.
Briefly, worms reared on mixed cultures of mutant or wild-type yeast with E. coli will be treated with DPI. Its effect on the nematode host will be observed phenotypically (using the Dar phenotype described in Preliminary studies) and biochemically (using the peroxidase assay described in Specific Aim 1B).

[1] = test system: ROS produced by the worms; conditions: worms on mutant or wild-type yeast with E. coli, treated with DPI; expected result of a planned test
Excerpt: a) Peroxidase enzyme activity: A commercially available assay (Amplex Red peroxidase kit, Molecular Probes) will be used to test peroxidase activity (20). Briefly, ROS produced by the worms, presumably in response to pathogenic attack, oxidize the substrate Amplex Red, to form a red fluorescent product that can be measured spectrophotometrically.
Briefly, worms reared on mixed cultures of mutant or wild-type yeast with E. coli will be treated with DPI.

## O=S(=O)([O-])[O-].c1ccc2c(c1)[I+]c1ccccc1-2.c1ccc2c(c1)[I+]c1ccccc1-2 [DPI, Diphenylene iodonium sulfate]
C. elegans
  Dar phenotype: expect to observe the Dar phenotype
[1]
  peroxidase activity: low peroxidase activity
